Legend:
Type in all cases: cell-based
CCRF-CEM = test system: CCRF-CEM
K-562 = test system: K-562
MOLT-4 = test system: MOLT-4
RPMI-8226 = test system: RPMI-8226
SR = test system: SR
A549/ATCC = test system: A549/ATCC
NCI-H226 = test system: NCI-H226
NCI-H23 = conditions: Non-small cell lung cancer; 10^−5 molar; 48 hours; SRB
NCI-H522 = test system: NCI-H522
HCT-116 = test system: HCT-116
HCT-15 = test system: HCT-15
KM12 = assay: cells
SF-268 = test system: SF-268
SF-295 = test system: SF-295
U251 = test system: U251
LOX IMVI = test system: LOX IMVI
MALME-3M = conditions: Melanoma; 10^−5 molar; 48 hours; SRB
MDA-MB-435 = test system: MDA-MB-435
SK-MEL-28 = test system: SK-MEL-28
SK-MEL-5 = test system: SK-MEL-5
[1] = Leukemia, 10^−5 molar, 48 hours, SRB
[2] = Homo sapiens, A549/ATCC, five dose
[3] = Non-small cell lung cancer, 10^−5 molar, 48 hours, SRB
[4] = Homo sapiens, NCI-H226, five dose
[5] = Homo sapiens, NCI-H522, five dose
[6] = Colon cancer, 10^−5 molar, 48 hours, SRB
[7] = Homo sapiens, HCT-116, five dose
[8] = Homo sapiens, HCT-15, five dose
[9] = CNS cancer, 10^−5 molar, 48 hours, SRB
[10] = Homo sapiens, SF-295, five dose
[11] = Homo sapiens, U-251, U251, five dose
[12] = Homo sapiens, LOX IMVI, five dose
[13] = Melanoma, 10^−5 molar, 48 hours, SRB
[14] = Homo sapiens, SK-MEL-28, five dose

CCNc1nc2ccccc2c2c(=O)c3cc(Cl)ccc3sc12 [Compound N2, 10-Chloro-6-ethylamino-12H-thiochromeno[2,3-c]quinolin-12-one]
TGI (CCRF-CEM; CCRF-CEM, five dose): >100 µM | GI50 (CCRF-CEM; Homo sapiens, CCRF-CEM, five dose): > 100 µM | CC50 (CCRF-CEM; Homo sapiens, CCRF-CEM, five dose, read-out: LC50 (the source's name)): > 100 µM | Growth percent CCRF-CEM (CCRF-CEM; [1]): 88.62% | GI50 (K-562; Homo sapiens, K562, K-562, five dose): > 100 µM | CC50 (K-562; Homo sapiens, K562, K-562, five dose, read-out: LC50 (the source's name)): > 100 µM | TGI (K-562; K-562, five dose): >100 µM | Growth percent K-562 (K-562; [1]): 77.52% | GI50 (MOLT-4; Homo sapiens, MOLT-4, five dose): > 100 µM | CC50 (MOLT-4; Homo sapiens, MOLT-4, five dose, read-out: LC50 (the source's name)): > 100 µM | Growth percent MOLT-4 (MOLT-4; [1]): 92.27% | TGI (MOLT-4; MOLT-4, five dose): >100 µM | GI50 (RPMI-8226; Homo sapiens, RPMI-8226, five dose): > 100 µM | CC50 (RPMI-8226; Homo sapiens, RPMI-8226, five dose, read-out: LC50 (the source's name)): > 100 µM | Growth percent RPMI-8226 (RPMI-8226; [1]): 79.66% | TGI (RPMI-8226; RPMI-8226, five dose): >100 µM | GI50 (SR; Homo sapiens, SR, five dose): > 100 µM | LC50 (50% lethal concentration) (SR; Homo sapiens, SR, five dose): > 100 µM | Growth percent SR (SR; [1]): 84.32% | TGI (SR; SR, five dose): >100 µM | TGI (A549/ATCC; A549/ATCC, five dose): >100 µM | GI50 (A549/ATCC; [2]): 48.1 µM | LC50 (A549/ATCC; [2]): > 100 µM | Growth percent A549/ATCC (A549/ATCC; [3]): 61.84% | GI50 (NCI-H226; [4]): 33.2 µM | LC50 (concentration giving 50% net cell kill) (NCI-H226; [4]): > 100 µM | TGI (NCI-H226; NCI-H226, five dose): >100 µM | Growth percent NCI-H226 (NCI-H226; [3]): 41.31% | Growth percent NCI-H23 (NCI-H23): 86.29% | GI50 (NCI-H522; [5]): 24.8 µM | LC50 (concentration causing 50% net cell kill) (NCI-H522; [5]): > 100 µM | TGI (NCI-H522; NCI-H522, five dose): >100 µM | Growth percent NCI-H522 (NCI-H522; [3]): 80.75% | Growth percent HCT-116 (HCT-116; [6]): 48.13% | TGI (HCT-116; HCT-116, five dose): >100 µM | GI50 (HCT-116; [7]): 6.31 µM | LC50 (concentration killing 50% of cells) (HCT-116; [7]): > 100 µM | Growth percent HCT-15 (HCT-15; [6]): 79.72% | TGI (HCT-15; HCT-15, five dose): >100 µM | GI50 (HCT-15; [8]): > 100 µM | LC50 (HCT-15; [8]): > 100 µM | Growth percent KM12 (KM12; [6]): 85.79% | GI50 (KM12; Homo sapiens, KM12, five dose): > 100 µM | LC50 (KM12; Homo sapiens, KM12, five dose): > 100 µM | TGI (KM12; KM12, five dose): >100 µM | Growth percent SF-268 (SF-268; [9]): 78.23% | GI50 (SF-268; Homo sapiens, SF-268, five dose): 22.1 µM | CC50 (SF-268; Homo sapiens, SF-268, five dose, read-out: LC50 (the source's name)): > 100 µM | TGI (SF-268; SF-268, five dose): >100 µM | Growth percent SF-295 (SF-295; [9]): 69.49% | GI50 (SF-295; [10]): 12.2 µM | LC50 (SF-295; [10]): > 100 µM | TGI (SF-295; SF-295, five dose): 35.20 µM | Growth percent U251 (U251; [9]): 76.58% | GI50 (U251; [11]): 16.9 µM | LC50 (U251; [11]): > 100 µM | TGI (U251; U251, five dose): 67.90 µM | GI50 (LOX IMVI; [12]): > 100 µM | LC50 (LOX IMVI; [12]): > 100 µM | TGI (LOX IMVI; LOX IMVI, five dose): >100 µM | Growth percent LOX IMVI (LOX IMVI; [13]): 80.61% | Growth percent MALME-3M (MALME-3M): 77.31% | GI50 (MDA-MB-435; Homo sapiens, MDA-MB-435, five dose): > 100 µM | CC50 (MDA-MB-435; Homo sapiens, MDA-MB-435, five dose, read-out: LC50 (the source's name)): > 100 µM | TGI (MDA-MB-435; MDA-MB-435, five dose): >100 µM | Growth percent MDA-MB-435 (MDA-MB-435; [13]): 80.67% | GI50 (SK-MEL-28; [14]): > 100 µM | LC50 (SK-MEL-28; [14]): > 100 µM | Growth percent SK-MEL-28 (SK-MEL-28; [13]): 93.07% | TGI (SK-MEL-28; SK-MEL-28, five dose): >100 µM | LC50 (SK-MEL-5; Homo sapiens, SK-MEL-5, five dose): > 100 µM | Growth percent SK-MEL-5 (SK-MEL-5; [13]): 73.99%

Source: US8927717B1, “Thiochromeno[2,3-c]quinolin-12-one derivatives, preparation method and application thereof” (National Defense Medical Center, priority 2014, dated 2015)
